One compound from article PMC4170777, “Effect of Temperature on Xylanase II from Trichoderma reesei QM 9414: A Calorimetric, Catalytic, and Conformational Study” (Enzyme Research, 2014) can be followed below.

The assay concerns the target T1, xylanase II (XYN II) (Trichoderma reesei, UniProt P36217).
T1 construct: gene xyn2; native secreted enzyme purified from wheat-straw culture supernatant of T. reesei QM 9414
Put plainly: differential scanning calorimetry. The format is binding. As to conditions: 0.4 M GL, 1 mg/mL protein, 0.1 M sodium citrate pH 5, scan rate 15°C/h; absolute Tm, not a shift; control without GL 57.27°C (irreversible). The text has this:
differential scanning calorimetry on xylanase II (XYN II)
In general terms: Differential scanning calorimetry records heat flow against a reference as temperature is scanned.

T1 sequence (P36217 34-223): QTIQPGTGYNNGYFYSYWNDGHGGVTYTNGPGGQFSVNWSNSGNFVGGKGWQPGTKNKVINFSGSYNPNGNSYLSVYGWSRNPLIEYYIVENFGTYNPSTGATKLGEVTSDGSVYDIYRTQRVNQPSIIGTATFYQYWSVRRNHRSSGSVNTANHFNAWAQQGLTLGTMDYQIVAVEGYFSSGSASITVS

Regarding `O=C1O[C@H](CO)[C@@H](O)[C@H](O)[C@H]1O` (mixture of isomers) [GL, D-glucono-1,5-lactone], the Global turned out to be 54.1 °C.
